This passage reports GI50 and TGI results from PubChem BioAssay (NCI).

The term GI50 denotes the concentration giving 50% growth inhibition. The TGI is the concentration giving total growth inhibition. Higher therefore signals less potent growth arrest.

Molecules are shown by their SMILES.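 These data come from cells grown in 96-well plates and exposed to compound for 48 hours at five concentrations. At the GI50, growth is halved. The concentration for full growth arrest is given as TGI.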 Some results are limits rather than exact numbers.

Among the test systems are RPMI-8226 leukemia; CCRF-CEM leukemia; SN12C renal; NCI-H460 lung; MOLT-4 leukemia; HT29 colon; TK-10 renal.
What all share (assay): DTP human tumour cell line panel, 48 h

Regarding `CC[O-].CC[O-].[O-]c1ccccc1C=Nc1ccccc1.[O-]c1ccccc1C=Nc1ccccc1.[Ti+4]`, the GI50 with RPMI-8226 leukemia was greater than 100 µM; with CCRF-CEM leukemia it was 10.9 µM; with SN12C renal, greater than 100 µM; with NCI-H460 lung, greater than 100 µM; in the assay on MOLT-4 leukemia it was 28.4 µM; in the assay on HT29 colon, greater than 100 µM. Moreover, in the assay with TK-10 renal, the GI50 was greater than 100 µM. Moreover, the TGI with RPMI-8226 leukemia, with CCRF-CEM leukemia, in the assay with SN12C renal, with NCI-H460 lung, with MOLT-4 leukemia and in the assay on HT29 colon was greater than 100 µM in each case. Further, the TGI with TK-10 renal is greater than 100 µM.
In the case of `COC1=CC(=O)c2ccc(C(C)C)cc2C1(C)C1=NC(C)(C)CO1` (configuration not stated), the TGI in the assay with RPMI-8226 leukemia, in the assay with CCRF-CEM leukemia, with SN12C renal, in the assay on NCI-H460 lung, in the assay with MOLT-4 leukemia and in the assay on HT29 colon was greater than 100 µM each time. In addition, the TGI in the assay with TK-10 renal was greater than 100 µM.
As to `CN1CCC23c4c5ccc(O)c4OC2C(=NN=C2CCC4(O)C6Cc7ccc(O)c8c7C4(CCN6C)C2O8)CCC3(O)C1C5` (configuration not stated), the TGI with RPMI-8226 leukemia, in the assay with CCRF-CEM leukemia, in the assay with SN12C renal, in the assay on NCI-H460 lung, with MOLT-4 leukemia and in the assay with HT29 colon was greater than 100 µM in each case. In the assay on TK-10 renal, this molecule registered a TGI greater than 100 µM.
Take `C[C@]12CCC[C@H](OC=O)C1(O)C[C@H](C(=O)O)CC2` (some centres not stated): the TGI with RPMI-8226 leukemia, in the assay with CCRF-CEM leukemia, with SN12C renal, in the assay on NCI-H460 lung, with MOLT-4 leukemia and in the assay on HT29 colon was greater than 100 µM throughout. Further, in the assay with TK-10 renal, the TGI is greater than 100 µM.
Consider `CCc1ccccc1NC(=O)/C(CC(=O)c1c(C)n([O-])c2ccccc2[n+]1=O)=N\NS(=O)(=O)c1ccc(C)cc1`, for which the concentration for total growth inhibition (TGI) in the assay with RPMI-8226 leukemia was 40 µM; in the assay with CCRF-CEM leukemia, 52.6 µM; with SN12C renal, greater than 100 µM; in the assay with NCI-H460 lung, greater than 100 µM; in the assay with MOLT-4 leukemia, 42.6 µM; with HT29 colon it was greater than 100 µM. In addition, the TGI with TK-10 renal is greater than 100 µM.
For the molecule `COc1ccccc1/C=C/C(=O)c1sc(-c2cccnc2)nc1C`, the TGI in the assay on RPMI-8226 leukemia, with CCRF-CEM leukemia, in the assay with SN12C renal, in the assay with NCI-H460 lung, in the assay on MOLT-4 leukemia and in the assay on HT29 colon was greater than 100 µM throughout. Further, the total growth inhibition concentration (TGI) in the assay with TK-10 renal was greater than 100 µM.
Regarding `CCCC(OCC)(OCC)OCC`, the TGI in the assay with RPMI-8226 leukemia, in the assay on CCRF-CEM leukemia, with SN12C renal, in the assay with NCI-H460 lung, with MOLT-4 leukemia and in the assay on HT29 colon was greater than 100 µM throughout. For the same molecule, the total growth inhibition concentration (TGI) in the assay with TK-10 renal was greater than 100 µM.
In the case of `CCCCCCCC[N+](C)(C)Cc1ccc(C[N+](C)(C)CCCCCCCC)cc1`, the concentration for total growth inhibition (TGI) in the assay with RPMI-8226 leukemia, with CCRF-CEM leukemia, in the assay on SN12C renal, in the assay on NCI-H460 lung, in the assay with MOLT-4 leukemia and with HT29 colon was greater than 100 µM throughout. In addition, in the assay on TK-10 renal, the total growth inhibition concentration (TGI) was greater than 100 µM.
Regarding `CCOC(=O)C1Cc2c(ccc(OC)c2OC)C(=O)C1N` (configuration not stated), the TGI with RPMI-8226 leukemia, with CCRF-CEM leukemia, in the assay on SN12C renal, in the assay on NCI-H460 lung, with MOLT-4 leukemia and in the assay with HT29 colon was greater than 100 µM each time. The molecule also gave a concentration for total growth inhibition (TGI) with TK-10 renal greater than 100 µM.
Turning to `O=C1c2ccccc2C(=O)N1/N=C\c1ccc(Br)cc1`, the TGI was greater than 10 µM in the assay with RPMI-8226 leukemia; greater than 100 µM with CCRF-CEM leukemia; greater than 100 µM in the assay with SN12C renal; greater than 10 µM in the assay with NCI-H460 lung; greater than 100 µM in the assay on MOLT-4 leukemia; greater than 100 µM in the assay on HT29 colon. This molecule registered a TGI with TK-10 renal greater than 10 µM. Further, the GI50 in the assay with CCRF-CEM leukemia, in the assay with SN12C renal, with MOLT-4 leukemia and in the assay on HT29 colon was greater than 100 µM in each case.
As for `OCCN1CCN(CCO)Cc2ccccc2OCCOc2ccccc2C1`, the TGI with RPMI-8226 leukemia, with CCRF-CEM leukemia, with SN12C renal, in the assay with NCI-H460 lung, with MOLT-4 leukemia and in the assay with HT29 colon was greater than 100 µM in each case. Moreover, the TGI in the assay with TK-10 renal is greater than 100 µM.
Take `CCCCCCCCCOC(=S)NC`: the TGI stood at 48.4 µM in the assay with RPMI-8226 leukemia; 47.7 µM in the assay on CCRF-CEM leukemia; 36.9 µM with SN12C renal; 36.3 µM in the assay on NCI-H460 lung; 46.5 µM in the assay on MOLT-4 leukemia; 42.2 µM in the assay on HT29 colon. Further, the TGI in the assay with TK-10 renal was determined as 54.6 µM.
Turning to `CC1(C)CC23C(=O)N(c4ccccc4)C(=Nc4ccccc4)NC2=CC(C#N)=C(C#N)C3O1` (configuration not stated), the TGI in the assay with RPMI-8226 leukemia, with CCRF-CEM leukemia, in the assay with SN12C renal, in the assay with NCI-H460 lung, in the assay on MOLT-4 leukemia and with HT29 colon was greater than 100 µM in each case. This molecule gave a TGI in the assay on TK-10 renal greater than 100 µM.
